As usually defined, the IC50 is the point on the concentration scale where inhibition reaches its midpoint.

A value given as a limit tells only on which side of the number the result lay.

One assay deals with MAP3K12 (human) (UniProt Q12852).
A further assay addresses PDPK1 (human) (UniProt O15530). As to the kind of experiment: KINOMEscan competition binding. Conditions: compound 10.0 µM.
Another assay has as its target KIT (human) (UniProt P10721). As to the kind of experiment: KINOMEscan competition binding. Conditions: compound 10.0 µM.
A further assay has as its target PIM3 (human) (UniProt Q86V86). As to the kind of experiment: KINOMEscan competition binding. As to conditions: compound 10.0 µM.
For assay [1], the target named is JAK2 JH1 catalytic (human) (UniProt O60674). As to the kind of experiment: KINOMEscan competition binding. As to conditions: compound 10.0 µM.
A further assay concerns the target MKNK1 (human) (UniProt Q9BUB5). As to the kind of experiment: KINOMEscan competition binding. Conditions: compound 10.0 µM.
The next assay deals with ERBB4 (human) (UniProt Q15303). As to the kind of experiment: KINOMEscan competition binding. As to conditions: compound 10.0 µM.
The target in the next assay is MAP2K1 (human) (UniProt Q02750). As to the kind of experiment: KINOMEscan competition binding. As to conditions: compound 10.0 µM.
In another assay the target is CASK (human) (UniProt O14936). The assay can be described thus: KINOMEscan competition binding. Conditions: compound 10.0 µM.

ERBB4 (human), sequence (Q15303 whole entry, looked up): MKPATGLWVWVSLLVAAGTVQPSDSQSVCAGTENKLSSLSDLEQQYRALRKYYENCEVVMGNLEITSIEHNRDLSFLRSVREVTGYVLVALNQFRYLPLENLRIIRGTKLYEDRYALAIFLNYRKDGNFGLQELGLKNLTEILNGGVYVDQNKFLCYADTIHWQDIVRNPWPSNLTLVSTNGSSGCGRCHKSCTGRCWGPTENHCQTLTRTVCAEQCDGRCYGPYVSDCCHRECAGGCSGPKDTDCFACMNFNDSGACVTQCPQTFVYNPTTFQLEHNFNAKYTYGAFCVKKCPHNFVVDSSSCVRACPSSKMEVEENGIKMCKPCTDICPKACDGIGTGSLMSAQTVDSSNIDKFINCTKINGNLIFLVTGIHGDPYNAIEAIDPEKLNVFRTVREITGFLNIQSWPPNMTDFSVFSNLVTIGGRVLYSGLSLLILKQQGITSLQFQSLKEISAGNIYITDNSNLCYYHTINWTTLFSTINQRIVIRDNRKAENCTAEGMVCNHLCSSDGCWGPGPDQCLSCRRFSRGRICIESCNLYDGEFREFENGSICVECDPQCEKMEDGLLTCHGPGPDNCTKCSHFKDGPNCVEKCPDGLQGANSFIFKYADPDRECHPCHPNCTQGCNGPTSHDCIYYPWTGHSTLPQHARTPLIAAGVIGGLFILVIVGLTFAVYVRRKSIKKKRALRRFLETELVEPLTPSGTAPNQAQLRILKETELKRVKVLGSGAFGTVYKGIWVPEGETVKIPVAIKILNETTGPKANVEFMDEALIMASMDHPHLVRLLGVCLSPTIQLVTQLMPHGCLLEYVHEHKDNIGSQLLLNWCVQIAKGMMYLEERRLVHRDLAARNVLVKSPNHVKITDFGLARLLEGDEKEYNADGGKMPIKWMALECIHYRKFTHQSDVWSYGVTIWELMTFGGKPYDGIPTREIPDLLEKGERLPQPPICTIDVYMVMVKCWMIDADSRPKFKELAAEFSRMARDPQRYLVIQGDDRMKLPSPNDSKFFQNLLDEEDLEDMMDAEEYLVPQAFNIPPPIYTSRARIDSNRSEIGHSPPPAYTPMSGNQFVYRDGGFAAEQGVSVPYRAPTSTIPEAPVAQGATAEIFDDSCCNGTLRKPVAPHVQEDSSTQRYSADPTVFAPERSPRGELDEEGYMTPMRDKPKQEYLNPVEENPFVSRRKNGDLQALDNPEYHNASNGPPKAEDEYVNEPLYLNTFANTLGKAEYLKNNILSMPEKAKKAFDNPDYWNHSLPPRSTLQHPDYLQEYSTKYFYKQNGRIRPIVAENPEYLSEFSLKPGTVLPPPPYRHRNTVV
MKNK1 (human), sequence (Q9BUB5 whole entry, looked up): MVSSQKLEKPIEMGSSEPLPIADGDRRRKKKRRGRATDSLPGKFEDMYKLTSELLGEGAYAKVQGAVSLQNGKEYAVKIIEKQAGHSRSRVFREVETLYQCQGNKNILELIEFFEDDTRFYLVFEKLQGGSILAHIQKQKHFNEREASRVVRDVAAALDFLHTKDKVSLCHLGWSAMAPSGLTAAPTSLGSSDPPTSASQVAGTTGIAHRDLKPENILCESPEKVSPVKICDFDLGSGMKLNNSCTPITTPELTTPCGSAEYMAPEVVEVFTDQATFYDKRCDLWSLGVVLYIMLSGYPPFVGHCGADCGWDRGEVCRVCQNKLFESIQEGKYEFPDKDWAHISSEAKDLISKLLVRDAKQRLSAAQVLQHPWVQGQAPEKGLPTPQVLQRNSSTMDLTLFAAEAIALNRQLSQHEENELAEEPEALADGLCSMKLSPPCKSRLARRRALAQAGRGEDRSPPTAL
MAP2K1 (human), sequence (Q02750 whole entry, looked up): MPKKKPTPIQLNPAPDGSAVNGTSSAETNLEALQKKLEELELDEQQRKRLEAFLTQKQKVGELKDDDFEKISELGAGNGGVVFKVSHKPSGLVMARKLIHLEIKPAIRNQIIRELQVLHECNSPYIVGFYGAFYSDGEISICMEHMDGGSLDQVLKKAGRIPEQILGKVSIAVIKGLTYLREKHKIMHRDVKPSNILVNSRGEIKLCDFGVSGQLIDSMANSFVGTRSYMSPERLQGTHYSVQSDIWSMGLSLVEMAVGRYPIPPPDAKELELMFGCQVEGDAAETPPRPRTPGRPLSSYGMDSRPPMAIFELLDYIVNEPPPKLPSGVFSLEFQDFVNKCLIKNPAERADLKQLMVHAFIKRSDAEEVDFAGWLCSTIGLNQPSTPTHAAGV
PDPK1 (human), sequence (O15530 whole entry, looked up): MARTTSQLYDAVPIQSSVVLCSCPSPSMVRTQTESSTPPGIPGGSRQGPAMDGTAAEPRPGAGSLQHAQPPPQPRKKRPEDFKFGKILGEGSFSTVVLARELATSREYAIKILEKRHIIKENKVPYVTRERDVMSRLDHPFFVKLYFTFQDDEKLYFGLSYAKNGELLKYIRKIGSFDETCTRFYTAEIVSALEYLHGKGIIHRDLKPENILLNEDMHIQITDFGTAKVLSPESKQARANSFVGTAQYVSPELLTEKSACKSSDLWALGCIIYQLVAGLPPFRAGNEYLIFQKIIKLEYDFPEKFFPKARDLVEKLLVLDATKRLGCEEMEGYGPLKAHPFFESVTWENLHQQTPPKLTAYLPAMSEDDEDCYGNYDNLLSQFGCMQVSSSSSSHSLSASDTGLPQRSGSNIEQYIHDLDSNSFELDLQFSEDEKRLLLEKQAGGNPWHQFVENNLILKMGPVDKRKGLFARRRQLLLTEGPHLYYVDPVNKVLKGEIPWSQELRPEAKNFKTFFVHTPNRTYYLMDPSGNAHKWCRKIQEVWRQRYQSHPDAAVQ
MAP3K12 (human), sequence (Q12852 whole entry, looked up): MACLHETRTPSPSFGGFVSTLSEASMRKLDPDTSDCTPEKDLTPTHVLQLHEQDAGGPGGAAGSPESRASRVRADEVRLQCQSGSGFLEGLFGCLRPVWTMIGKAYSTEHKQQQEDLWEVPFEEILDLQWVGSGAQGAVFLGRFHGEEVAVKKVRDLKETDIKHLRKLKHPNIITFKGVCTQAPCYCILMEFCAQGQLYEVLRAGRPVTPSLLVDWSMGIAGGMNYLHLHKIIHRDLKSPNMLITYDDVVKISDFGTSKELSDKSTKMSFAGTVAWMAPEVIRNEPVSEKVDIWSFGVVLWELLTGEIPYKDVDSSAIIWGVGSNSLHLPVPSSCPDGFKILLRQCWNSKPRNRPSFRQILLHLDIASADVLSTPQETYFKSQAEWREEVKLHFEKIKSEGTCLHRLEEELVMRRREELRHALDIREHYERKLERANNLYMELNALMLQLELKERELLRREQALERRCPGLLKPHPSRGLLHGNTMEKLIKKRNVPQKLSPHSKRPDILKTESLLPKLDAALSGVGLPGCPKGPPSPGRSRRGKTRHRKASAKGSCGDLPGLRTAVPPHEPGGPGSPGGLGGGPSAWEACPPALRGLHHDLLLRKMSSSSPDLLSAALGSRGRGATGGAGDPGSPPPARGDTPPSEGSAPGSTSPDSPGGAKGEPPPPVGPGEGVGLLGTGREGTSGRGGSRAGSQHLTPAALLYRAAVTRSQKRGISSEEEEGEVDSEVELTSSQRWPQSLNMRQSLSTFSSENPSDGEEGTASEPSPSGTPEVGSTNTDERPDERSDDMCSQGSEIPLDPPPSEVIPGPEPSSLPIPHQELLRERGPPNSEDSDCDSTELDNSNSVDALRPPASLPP
KIT (human), sequence (P10721 whole entry, looked up): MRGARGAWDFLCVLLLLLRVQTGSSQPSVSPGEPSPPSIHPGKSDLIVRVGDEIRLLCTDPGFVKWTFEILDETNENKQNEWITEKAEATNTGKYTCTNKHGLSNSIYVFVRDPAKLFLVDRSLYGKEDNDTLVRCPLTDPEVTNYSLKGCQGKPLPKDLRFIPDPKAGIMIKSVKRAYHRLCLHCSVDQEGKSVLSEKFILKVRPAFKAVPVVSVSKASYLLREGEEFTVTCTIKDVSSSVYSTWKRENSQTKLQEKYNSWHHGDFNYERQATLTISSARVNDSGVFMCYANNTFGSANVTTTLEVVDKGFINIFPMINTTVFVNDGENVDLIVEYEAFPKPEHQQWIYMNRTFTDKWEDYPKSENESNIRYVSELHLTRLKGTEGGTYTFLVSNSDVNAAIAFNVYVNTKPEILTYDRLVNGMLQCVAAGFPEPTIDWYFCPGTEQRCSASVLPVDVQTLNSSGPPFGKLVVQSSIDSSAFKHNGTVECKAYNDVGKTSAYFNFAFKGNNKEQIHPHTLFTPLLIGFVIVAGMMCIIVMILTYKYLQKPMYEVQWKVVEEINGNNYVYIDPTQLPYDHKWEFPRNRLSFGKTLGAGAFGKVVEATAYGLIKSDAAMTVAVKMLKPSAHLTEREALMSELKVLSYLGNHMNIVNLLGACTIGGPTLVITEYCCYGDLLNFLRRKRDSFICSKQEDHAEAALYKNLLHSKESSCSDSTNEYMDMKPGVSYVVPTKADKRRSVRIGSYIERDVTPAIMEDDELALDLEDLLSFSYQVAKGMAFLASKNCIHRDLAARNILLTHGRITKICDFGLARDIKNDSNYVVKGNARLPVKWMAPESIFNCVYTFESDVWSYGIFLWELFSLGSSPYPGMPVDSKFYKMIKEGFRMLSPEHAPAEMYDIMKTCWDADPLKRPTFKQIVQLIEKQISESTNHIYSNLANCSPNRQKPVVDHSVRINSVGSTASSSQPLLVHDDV

On to `O=C(Nc1ccc(Oc2ncnc3[nH]ncc23)cc1)Nc1ccc(Cl)c(C(F)(F)F)c1`, for which the IC50 on MAP3K12 (human) was more than 10 µM. The kinase still bound, per cent of control at PDPK1 (human) was 89%; at KIT (human), 0.05%; on PIM3 (human), 94%; in assay [1], 80%; on MKNK1 (human), 5.4%; on ERBB4 (human), 94%. Further, the figures for the kinase still bound, per cent of control at MAP2K1 (human) and on CASK (human) were 76% and 20%, respectively.

For the origin of these results see the kinase profiling compilation of Christmann-Franck et al. (2016).
